Experimental data published in patent US9669015B2, “Piperidine-2, 6-dione derivatives and their use as tumor necrosis factor inhibitors” (Tianjin Hemay Bio-Tech Co., Ltd., priority 2005, dated 2017).

Tests used:
[1] = system: TNFα released by PBMCs; assay: Inhibition of TNFα released by PBMCs after LPS stimulation in vitro (ELISA); type: cell-based, human; conditions: for Inhibition Degree (%): TNFα inhibition rate, LPS 0.1 μg/ml-stimulated PBMCs, compound concentration 3.0 μM; for EC50: concentration giving 50% TNFα inhibition, LPS-stimulated PBMCs, nonlinear regression
Source text: Pharmacological Research: Effects of Monocyte (PBMC) Stimulation by LPS on TNFα
Cytokine TNFα released by PBMCs in peripheral blood after lip polysaccharide (LPS) stimulation in vitro was studied. The followings are research methods of cytokine TNFα released by PBMCs, which are inhibited by compounds of the invention.
PBMCs were obtained from blood of at least three volunteers after heparin treatment, by the method of gradient extraction. PBMCs were collected and washed with 1640 culture medium three times (10% calf serum, 2 mM L-glutamine, […] mercaptoethanol, 50 μg/ml streptomycin, 50 U/ml penicillin). The above PBMCs were placed onto a 24-well cell culture plate. The concentration was adjusted to 1×10^6 cells/ml with 1640 culture medium. Test compounds were dissolved in dimethylsulfoxide at an appropriate concentration. The resultant solution was added to the above cell culture medium and the culture plate was placed in a CO2 incubator (5% CO2, 90% humidity) for 1 hour. Then, LPS (Sigma) was added to adjust the concentration to 0.1 μg/ml (except for contrast). After 20 hrs of incubation, the content of TNFα in supernatant of the above PBMC culture medium was determined by ELISA kit (America Genzyme Co) using standard method. The measured value of the control (no active compound), and the measured value of the tested compounds was used to calculate the TNFα inhibition rate. The concentration of compounds giving a 50% TNFα inhibition (IC50 value) was calculated by nonlinear regression analysis. Each concentration was determined twice and an average value was obtained.

[2] = Solubility in water; type: physicochemical
[3] = Homo sapiens, PBMC, read-out: Inhibition Degree (%)

## 4,5,6,7-tetrafluoro-2-(1-(2-methoxyethyl)-2,6-dioxopiperidin-3-yl)-4-nitroisoindoline-1,3-dione [Example 31]
[1]
  Inhibition Degree (%): 62%

## COCCN1C(=O)CCC(N2C(=O)c3cccc(N)c3C2=O)C1=O (stereo not drawn) [Example 27, 4-amino-2-(1-(2-methoxyethyl)-2,6-dioxopiperidin-3-yl)isoindoline-1,3-dione]
[1]; Homo sapiens, PBMC
  EC50: 0.3 µM
[1]; [3]
  inhibition at 3 µM: 92%

## 2-(1-(2-hydroxyethyl)-2,6-dioxopiperidin-3-yl)isoindolin-1,3-dione 2-(diethylamino)acetate hydrochloride [Example 10]
[2]
  Solubility in water: higher than 100 mg/mL

## O=C1CCC(N2C(=O)c3ccccc3C2=O)C(=O)N1CCCCO (stereo not drawn) [Example 22, 2-(1-(4-hydroxybutyl)-2,6-dioxopiperidin-3-yl)isoindoline-1,3-dione]
[1]; [3]
  inhibition at 3 µM: 18%

## 4-fluoro-2-(1-(2-methoxyethyl)-2,6-dioxopiperidin-3-yl)-4-nitroisoindoline-1,3-dione [Example 30]
[1]
  Inhibition Degree (%): 58%

## CCN(CC)CC(=O)OCCN1C(=O)CCC(N2C(=O)c3ccccc3C2=O)C1=O (stereo not drawn) [Example 9, 2-(1-(2-hydroxyethyl)-2,6-dioxopiperidin-3-yl)isoindolin-1,3-dione 2-(diethylamino)acetate]
[1]
  Inhibition Degree (%): 20%

## O=C1CCC(N2C(=O)c3ccccc3C2=O)C(=O)N1 (stereo not drawn) [Thalidomide, reference compound]
[1]; [3]
  inhibition at 100 µM: 22%

## Nc1cccc2c1C(=O)N(C1CCC(=O)N(CCO)C1=O)C2=O (stereo not drawn) [Example 26, 4-amino-2-(1-(2-hydroxyethyl)-2,6-dioxopiperidin-3-yl)isoindoline-1,3-dione]
[1]; Homo sapiens, PBMC
  EC50: 0.25 µM
[1]; [3]
  inhibition at 3 µM: 95%

## O=C1CCC(N2C(=O)c3cccc([N+](=O)[O-])c3C2=O)C(=O)N1CCO (stereo not drawn) [Example 24, 2-(1-(2-hydroxyethyl)-2,6-dioxopiperidin-3-yl)-4-nitroisoindoline-1,3-dione]
[1]; [3]
  inhibition at 3 µM: 28%

## COCCN1C(=O)CCC(N2C(=O)c3cccc(NC(C)=O)c3C2=O)C1=O (stereo not drawn) [Example 28, N-(2-(1-(2-methoxyethyl)-2,6-dioxopiperidin-3-yl)-1,3-dioxoisoindolin-7-yl)acetamide]
[1]; [3]
  inhibition at 3 µM: 78%

## 2-(1-(2-hydroxyethyl)-2,6-dioxopiperidin-3-yl)isoindolin-1,3-dione 2-(1-piperidyl)acetate hydrochloride [Example 14]
[2]
  Solubility in water: more than 100 mg/mL

## COCCN1C(=O)CCC(N2C(=O)c3cccc(N(C)C)c3C2=O)C1=O (stereo not drawn) [Example 29, 4-(dimethylamino)-2-(1-(2-methoxyethyl)-2,6-dioxopiperidin-3-yl)isoindoline-1,3-dione]
[1]; [3]
  inhibition at 3 µM: 64%

## O=C1CCC(N2C(=O)c3ccccc3C2=O)C(=O)N1CCO (stereo not drawn) [Example 1, 2-(1-(2-Hydroxyethyl)-2,6-dioxopiperidin-3-yl)isoindoline-1,3-dione]
[1]; [3]
  inhibition at 3 µM: 70%
